From the NIST ThermoML archive (doi:10.1016/j.jct.2015.12.031)

Assays:
[1] = mn = molality of the nth substance listed, in mol/kg; conditions: 86.5 kPa, Liquid; for speed of sound: Frequency=3 MHz, Sing-around technique in a fixed-path interferometer; for mass density: Vibrating tube method
[2] = refractive index (Na D-line) (dimensionless); mn = molality of the nth substance listed, in mol/kg; conditions: 86.5 kPa, Liquid, Standard Abbe refractometry

c1ccsc1 [thiophene] + CCCCCCCC
Conditions | mass density, [1] [kg/m3] | refractive index, [2] | speed of sound, [1] [m/s]
288.15 K, m1 = 0.0158 | 707.297 | 1.4002 | 1214.4
288.15 K, m1 = 0.0275 | 707.523 | 1.4003 | 1214.4
288.15 K, m1 = 0.0517 | 707.987 | 1.4004 | 1214.4
288.15 K, m1 = 0.0847 | 708.616 | 1.4005 | 1214.3
288.15 K, m1 = 0.0952 | 708.817 | 1.4006 | 1214.3
288.15 K, m1 = 0.1081 | 709.062 | 1.4006 | 1214.3
288.15 K, m1 = 0.1182 | 709.253 | 1.4007 | 1214.3
288.15 K, m1 = 0.1353 | 709.577 | 1.4008 | 1214.2
288.15 K, m1 = 0.1494 | 709.844 | 1.4008 | 1214.2
288.15 K, m1 = 0.1577 | 710 | 1.4009 | 1214.2
288.15 K, m1 = 0.1729 | 710.288 | 1.401 | 1214.2
288.15 K, m1 = 0.1797 | 710.414 | 1.401 | 1214.2
288.15 K, m1 = 0.1932 | 710.67 | 1.4011 | 1214.2
288.15 K, m1 = 0.2031 | 710.855 | 1.4012 | 1214.1
288.15 K, m1 = 0.3004 | 712.662 | 1.4017 | 1214
288.15 K, m1 = 0.4002 | 714.496 | 1.4023 | 1213.8
288.15 K, m1 = 0.5026 | 716.351 | 1.4028 | 1213.6
288.15 K, m1 = 0.5823 | 717.77 | 1.4033 | 1213.5
293.15 K, m1 = 0.0158 | 703.296 | 1.3976 | 1193.3
293.15 K, m1 = 0.0275 | 703.52 | 1.3977 | 1193.3
293.15 K, m1 = 0.0517 | 703.981 | 1.3978 | 1193.3
293.15 K, m1 = 0.0847 | 704.605 | 1.398 | 1193.2
293.15 K, m1 = 0.0952 | 704.805 | 1.3981 | 1193.2
293.15 K, m1 = 0.1081 | 705.047 | 1.3982 | 1193.2
293.15 K, m1 = 0.1182 | 705.236 | 1.3982 | 1193.2
293.15 K, m1 = 0.1353 | 705.558 | 1.3983 | 1193.2
293.15 K, m1 = 0.1494 | 705.822 | 1.3984 | 1193.2
293.15 K, m1 = 0.1577 | 705.976 | 1.3985 | 1193.2
293.15 K, m1 = 0.1729 | 706.262 | 1.3985 | 1193.2
293.15 K, m1 = 0.1797 | 706.389 | 1.3986 | 1193.1
293.15 K, m1 = 0.1932 | 706.641 | 1.3986 | 1193.1
293.15 K, m1 = 0.2031 | 706.824 | 1.3987 | 1193.1
293.15 K, m1 = 0.3004 | 708.627 | 1.3992 | 1193
293.15 K, m1 = 0.4002 | 710.432 | 1.3997 | 1192.9
293.15 K, m1 = 0.5026 | 712.275 | 1.4003 | 1192.7
293.15 K, m1 = 0.5823 | 713.683 | 1.4007 | 1192.6
298.15 K, m1 = 0.0158 | 699.223 | 1.3952 | 1172.4
298.15 K, m1 = 0.0275 | 699.447 | 1.3953 | 1172.4
298.15 K, m1 = 0.0517 | 699.907 | 1.3954 | 1172.4
298.15 K, m1 = 0.0847 | 700.53 | 1.3956 | 1172.3
298.15 K, m1 = 0.0952 | 700.728 | 1.3957 | 1172.3
298.15 K, m1 = 0.1081 | 700.97 | 1.3957 | 1172.3
298.15 K, m1 = 0.1182 | 701.159 | 1.3958 | 1172.3
298.15 K, m1 = 0.1353 | 701.48 | 1.3959 | 1172.3
298.15 K, m1 = 0.1494 | 701.743 | 1.396 | 1172.3
298.15 K, m1 = 0.1577 | 701.901 | 1.3961 | 1172.3
298.15 K, m1 = 0.1729 | 702.182 | 1.3961 | 1172.3
298.15 K, m1 = 0.1797 | 702.312 | 1.3962 | 1172.2
298.15 K, m1 = 0.1932 | 702.561 | 1.3962 | 1172.2
298.15 K, m1 = 0.2031 | 702.742 | 1.3963 | 1172.2
298.15 K, m1 = 0.3004 | 704.545 | 1.3968 | 1172.1
298.15 K, m1 = 0.4002 | 706.341 | 1.3973 | 1171.9
298.15 K, m1 = 0.5026 | 708.178 | 1.3978 | 1171.8
298.15 K, m1 = 0.5823 | 709.577 | 1.3982 | 1171.6
303.15 K, m1 = 0.0158 | 695.177 | 1.3926 | 1151.5
303.15 K, m1 = 0.0275 | 695.398 | 1.3927 | 1151.5
303.15 K, m1 = 0.0517 | 695.856 | 1.3928 | 1151.4
303.15 K, m1 = 0.0847 | 696.474 | 1.393 | 1151.4
303.15 K, m1 = 0.0952 | 696.672 | 1.393 | 1151.4
303.15 K, m1 = 0.1081 | 696.912 | 1.3931 | 1151.4
303.15 K, m1 = 0.1182 | 697.101 | 1.3932 | 1151.4
303.15 K, m1 = 0.1353 | 697.419 | 1.3933 | 1151.3
303.15 K, m1 = 0.1494 | 697.682 | 1.3934 | 1151.3
303.15 K, m1 = 0.1577 | 697.834 | 1.3934 | 1151.3
303.15 K, m1 = 0.1729 | 698.118 | 1.3935 | 1151.3
303.15 K, m1 = 0.1797 | 698.244 | 1.3935 | 1151.3
303.15 K, m1 = 0.1932 | 698.492 | 1.3936 | 1151.3
303.15 K, m1 = 0.2031 | 698.675 | 1.3936 | 1151.3
303.15 K, m1 = 0.3004 | 700.46 | 1.3941 | 1151.1
303.15 K, m1 = 0.4002 | 702.25 | 1.3947 | 1151
303.15 K, m1 = 0.5026 | 704.068 | 1.3953 | 1150.8
303.15 K, m1 = 0.5823 | 705.455 | 1.3957 | 1150.7
